Measurements reported in patent US5220059A, “Lipoxygenase-inhibiting compounds derived from non-steroidal antiinflammatory carboxylic acids” (Abbott Laboratories, priority 1990, dated 1993).

How the values were obtained:
5-lipoxygenase = target: T1, 5-lipoxygenase (Rattus norvegicus, UniProt P12527); test: In vitro inhibition of 5-lipoxygenase (20,000xg supernatant from homogenized RBL-1 cells); assay type: biochemical; conditions: read-out: IC50 (concentrations producing 50% enzyme inhibition)
T1 construct: 20,000xg supernatant from homogenized RBL-1 cells; endogenous in cells; host or cells: RBL-1 cells (20,000xg supernatant of homogenate)
T1 sequence (P12527 1-673): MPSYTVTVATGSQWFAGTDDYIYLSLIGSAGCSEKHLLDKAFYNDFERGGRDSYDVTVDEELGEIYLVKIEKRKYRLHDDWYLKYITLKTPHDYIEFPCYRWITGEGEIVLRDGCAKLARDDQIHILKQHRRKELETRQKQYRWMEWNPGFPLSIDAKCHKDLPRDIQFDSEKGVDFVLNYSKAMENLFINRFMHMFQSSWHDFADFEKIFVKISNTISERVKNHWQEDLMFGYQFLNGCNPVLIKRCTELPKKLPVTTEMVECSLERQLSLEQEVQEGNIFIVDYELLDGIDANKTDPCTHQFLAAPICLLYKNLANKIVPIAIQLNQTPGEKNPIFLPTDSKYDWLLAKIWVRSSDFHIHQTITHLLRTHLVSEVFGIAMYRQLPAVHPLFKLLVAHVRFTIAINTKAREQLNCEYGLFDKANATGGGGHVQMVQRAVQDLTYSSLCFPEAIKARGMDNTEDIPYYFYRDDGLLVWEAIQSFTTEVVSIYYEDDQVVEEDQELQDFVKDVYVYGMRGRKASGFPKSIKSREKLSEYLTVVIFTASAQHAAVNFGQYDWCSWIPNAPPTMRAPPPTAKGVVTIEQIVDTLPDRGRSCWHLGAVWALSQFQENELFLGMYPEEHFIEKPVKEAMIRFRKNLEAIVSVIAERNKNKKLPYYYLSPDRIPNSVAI
Protocol: The In vitro effect of the compounds of the present invention on 5-lipoxygenase activity was evaluated using the 20,000xg supernatant from homogenized RBL-1 cells in a manner similar to that described by Dyer and coworkers in Fed. Proc., Fed. Am. Soc. Exp. Biol. 43:[…] (1984). IC50 values (i.e., concentrations of the compounds producing 50% enzyme inhibition) were calculated by linear regression analysis of percentage inhibition versus log inhibitor concentration plots.

leukotriene biosynthesis = test: In vivo inhibition of leukotriene biosynthesis, rat peritoneal anaphylaxis model; conditions: 200 μmol/kg PO (gavage) one hour prior to antigen challenge, peritoneal fluids collected 15 minutes after challenge
Protocol: The in vivo inhibition of leukotriene biosynthesis by the compounds of the present invention was evaluated in the following manner. The effect of the compounds after oral administration was determined using a rat peritoneal anaphylaxis model in a manner similar to that described by Young and coworkers in Fed. Proc., Fed. Am. Soc. Exp. Biol. 44:1185 (1985). According to this model rats were injected intraperitoneally (IP) with rabbit antibody to bovine serum albumin (BSA) and three hours later injected IP with BSA to induce an antigen-antibody response. Rats were sacrificed 15 minutes after this challenge and the peritoneal fluids were collected and analyzed for leukotriene levels. Test compounds were administered by gavage (PO) one hour prior to the antigen challenge. Percent inhibition values were determined by comparing the treatment group to the mean of the control group.

Structure (SMILES)	IC50 (5-lipoxygenase) [nM]	In vivo Inhibition of Leukotriene Biosynthesis (leukotriene biosynthesis) [%]
COc1ccc2c(c1)c(CCN(O)C(N)=O)c(C)n2C(=O)c1ccc(Cl)cc1 [Example 16, N-hydroxy-N-[2-(N-(4-chlorobenzoyl)-5-methoxy-2-methyl-[1H]-indol-3-yl)ethyl] urea]	400	–
CNC(=O)N(O)CCc1c(C)n(C(=O)c2ccc(Cl)cc2)c2ccc(OC)cc12 [Example 32, N-hydroxy-N-[2-(N-(4-chlorobenzoyl)-5-methoxy-2-methyl-[1H]-indol-3-yl)ethyl]-N'-methyl urea]	200	42
COc1ccc2cc(C(C)N(O)C(N)=O)ccc2c1 (stereo not drawn) [Example 2, N-hydroxy-N-1-(6-methoxynaphthalen-2-yl)ethyl urea]	430	66
CNC(=O)N(O)C(C)c1ccc(CC(C)C)cc1 (stereo not drawn) [Example 3, N'-methyl-N-hydroxy-N-1-(4-(2'-methylpropyl)phenyl)ethyl urea]	700	39
CCSC(=O)N(O)C(C)c1ccc(CC(C)C)cc1 (stereo not drawn) [Example 31, N-hydroxy-N-[1-(4-(2'-methylpropyl)phenyl)ethyl] thioethylcarbamate]	200	–
CC(C)Cc1ccc(C(C)CN(O)C(N)=O)cc1 (stereo not drawn) [Example 17, N-hydroxy-N-[2-(4-(2-methylpropyl)phenyl)propyl] urea]	200	–
CC(C)Cc1ccc(C(C)N(O)C(N)=S)cc1 (stereo not drawn) [Example 29, N-hydroxy-N-[1-(4-(2'-methylpropyl)phenyl)ethyl] thiourea]	< 400	–
CC(C)Cc1ccc(C(C)N(O)C(N)=O)cc1 (stereo not drawn) [Example 1, N-hydroxy-N-[1-(4-(2'-methylpropyl)phenyl)ethyl]urea]	640	–
CNC(=O)N(O)C(C)c1ccc2cc(OC)ccc2c1 (stereo not drawn) [Example 4, N'-methyl-N-hydroxy-N-1-(6-methoxynaphthalen-2-yl)ethyl urea]	600	–
COc1ccc2cc(C(C)N(O)C(C)=O)ccc2c1 (stereo not drawn) [Example 5, N-hydroxy-N-1-(6-methoxynaphthalen-2-yl)ethyl acetamide]	700	62
CCOC(=O)N(O)C(C)c1ccc(CC(C)C)cc1 (stereo not drawn) [Example 30, N-hydroxy-N-[1-(4-(2'-methylpropyl)phenyl)ethyl] ethoxycarbamate]	< 400	–
